Measurements taken from ChEMBL document CHEMBL3351699, “Diarylthiazole: an antimycobacterial scaffold potentially targeting PrrB-PrrA two-component system” (J Med Chem, 2014).
Converted amounts (≈) assume the structure as drawn. The source made the active and inactive calls. No cut-off for these calls is given here.

What was measured:
Assay type in all cases: functional
[1] = test system: Mycobacterium tuberculosis; test: Antimicrobial activity against first mutant generation Mycobacterium tuberculosis 1024_18 assessed as fold shift in MIC relative to parent strain
[2] = test system: Mycobacterium tuberculosis; test: Antimicrobial activity against Mycobacterium tuberculosis H37Rv over-expressing InhA cells assessed as upshift of MIC relative to wild type
[3] = test system: Mycobacterium tuberculosis; test: Antimicrobial activity against second mutant generation Mycobacterium tuberculosis 1024_8.12 assessed as fold shift in MIC relative to parent strain
[4] = test system: Mycobacterium tuberculosis; test: Antimicrobial activity against first mutant generation Mycobacterium tuberculosis 1024_1 assessed as fold shift in MIC relative to parent strain
[5] = test system: Mycobacterium tuberculosis; test: Antimicrobial activity against second mutant generation Mycobacterium tuberculosis 1024_16.6 assessed as fold shift in MIC relative to parent strain
[6] = test system: Mycobacterium tuberculosis; test: Antimicrobial activity against second mutant generation Mycobacterium tuberculosis 1024_16.5 assessed as fold shift in MIC relative to parent strain
[7] = test system: Mycobacterium tuberculosis; test: Antimicrobial activity against second mutant generation Mycobacterium tuberculosis 1024_18 assessed as fold shift in MIC relative to parent strain
[8] = test system: Mycobacterium tuberculosis; test: Antimicrobial activity against clinical isolate Rifampin-resistant Mycobacterium tuberculosis assessed as growth inhibition after 7 days by turbidometry; conditions: 168 h
[9] = test system: Mycobacterium tuberculosis; test: Antimicrobial activity against clinical isolate Isoniazid-resistant Mycobacterium tuberculosis assessed as growth inhibition after 7 days by turbidometry; conditions: 168 h

Row | Compound | Ratio [1] | Activity [2] | Ratio [3] | Ratio [4] | Ratio [5] | Ratio [6] | Ratio [7] | MIC80 [8] | MIC80 [9] | fold change (FC) [2]
1 | CCCc1cc(-c2nc(-c3ccncc3)cs2)ccn1 | 8 | Active | 8 | 16 | 16 | 16 | 8 |  |  | 
2 | CCCc1cc(-c2nc(-c3cccc(OC)c3)cs2)ccn1 |  |  |  |  |  |  |  | 0.5 µg/mL (≈ 1.61 µM) | 1 µg/mL (≈ 3.22 µM) | 
3 | CCCc1cc(-c2nc(-c3ccc(OCC4CC4)cc3)cs2)ccn1 |  |  |  |  |  |  |  | 0.13 µg/mL (≈ 0.371 µM) | 1 µg/mL (≈ 2.85 µM) | 
4 | CCCc1cc(-c2csc(-c3ccnc(CCC)c3)n2)ccn1 |  | Active |  |  |  |  |  |  |  | 
5 | COc1c(N2C[C@@H]3CCCN[C@@H]3C2)c(F)cc2c(=O)c(C(=O)O)cn(C3CC3)c12 [MOXIFLOXACIN] | 1 |  | 1 | 1 | 1 | 1 | 0.5 |  |  | 
6 | CCCc1cc(-c2nc(-c3ccc(OCCN4CCOCC4)cc3)cs2)ccn1 |  |  | 8 |  | >8 | 4 | 8 | 0.5 µg/mL (≈ 1.22 µM) | 1 µg/mL (≈ 2.44 µM) | 
7 | CCCc1cc(-c2nc(-c3ccc(C)cc3)cs2)ccn1 [FATOSTATIN] | 16 | Active | 16 | 8 | >32 | 16 | 16 |  |  | 
8 | COc1nc2ccc(Br)cc2cc1[C@@H](c1ccccc1)[C@@](O)(CCN(C)C)c1cccc2ccccc12 [BEDAQUILINE] | 0.5 |  | 0.25 | 1 | 0.5 | 0.5 | 0.25 |  |  | 
9 | CCCc1cc(-c2nc(-c3ccccn3)cs2)ccn1 |  | Active |  |  |  |  |  |  |  | 
10 | NNC(=O)c1ccncc1 [ISONIAZID] | 1 |  | 1 | 1 | 1 | 1 | 1 | 0.03 µg/mL (≈ 0.219 µM) | > 16 µg/mL | 8
11 | CCCc1cc(-c2nc(-c3ccc(NS(C)(=O)=O)cc3)cs2)ccn1 |  |  |  |  |  |  |  | 0.13 µg/mL (≈ 0.348 µM) | 0.5 µg/mL (≈ 1.34 µM) | 
12 | CCc1cc(C(N)=S)ccn1 [ETHIONAMIDE] |  |  |  |  |  |  |  |  |  | 8
13 | Oc1cc(Cl)ccc1Oc1ccc(Cl)cc1Cl [TRICLOSAN] |  |  |  |  |  |  |  |  |  | 8
14 | CC(=O)NC[C@H]1CN(c2ccc(N3CCOCC3)c(F)c2)C(=O)O1 [LINEZOLID] | 1 |  |  | 1 |  |  |  |  |  | 
15 | CCCc1cc(-c2nc(-c3ccnc(OCC)c3)cs2)ccn1 |  | Active |  |  |  |  |  |  |  | 
16 | CO[C@H]1/C=C/O[C@@]2(C)Oc3c(C)c(O)c4c(O)c(c(/C=N/N5CCN(C)CC5)c(O)c4c3C2=O)NC(=O)/C(C)=C\C=C\[C@H](C)[C@H](O)[C@@H](C)[C@@H](O)[C@@H](C)[C@H](OC(C)=O)[C@@H]1C [RIFAMPIN] | 0.5 |  |  | 0.5 |  |  |  | > 16 µg/mL | 0.003 µg/mL (≈ 0.00365 µM) | 
